Values of other authors in patent publication US20240358747A1, “SOME GEL FORMULATIONS THAT PROVIDE WOUND HEALING AND THE SYNTHESIS OF DYSPROSIUM ERBIUM BORATE TRIHYDRATE (Dy0.5Er0.5BO3.3H2O) COMPOUND USED IN THESE FORMULATIONS” (VERTRATECH KIMYA SANAYI VE TICARET LIMITED SIRKETI, priority 2021, published 2024).

Conditions: topical application of 3% boric acid to wounds

OB(O)O [boric acid]
length of stay in intensive care units: reduces the length of stay in intensive care units three times
